{
  "source": "ChEMBL document CHEMBL4414656",
  "about": "“Alkaloids from the Branches and Leaves of Elaeocarpus angustifolius” (J Nat Prod, 2019)",
  "data": [
    {"target": "Cholinesterase (Homo sapiens, UniProt P06276)", "sequence (P06276 whole entry)": "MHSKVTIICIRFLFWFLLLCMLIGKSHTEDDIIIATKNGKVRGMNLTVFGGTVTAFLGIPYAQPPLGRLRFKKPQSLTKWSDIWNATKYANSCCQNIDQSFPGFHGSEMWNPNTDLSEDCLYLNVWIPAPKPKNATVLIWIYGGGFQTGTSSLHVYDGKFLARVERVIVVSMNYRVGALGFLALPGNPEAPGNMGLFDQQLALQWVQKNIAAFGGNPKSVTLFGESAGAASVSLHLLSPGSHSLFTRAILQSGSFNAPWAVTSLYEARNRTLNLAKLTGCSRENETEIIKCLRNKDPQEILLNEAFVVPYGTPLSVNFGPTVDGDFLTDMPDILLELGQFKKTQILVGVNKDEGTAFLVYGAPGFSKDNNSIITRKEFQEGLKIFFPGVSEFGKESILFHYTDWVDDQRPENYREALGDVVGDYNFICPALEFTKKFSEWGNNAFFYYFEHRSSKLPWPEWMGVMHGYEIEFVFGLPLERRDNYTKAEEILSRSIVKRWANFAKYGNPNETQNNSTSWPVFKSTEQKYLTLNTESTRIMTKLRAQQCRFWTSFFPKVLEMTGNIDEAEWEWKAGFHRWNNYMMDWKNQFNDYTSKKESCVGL", "assay": "Inhibition of human […] BuChE using S-butyrylthiocholine iodide as substrate preincubated for 20 mins followed by substrate addition and measured every 30 secs for 1 hr by Ellman's method", "units": {"IC50": "µM"}, "values": [
      {"smiles": "Cc1cccc(O)c1C(=O)C[C@@H]1CC[C@@H]2[C@H]3C(=O)c4c(C)cccc4O[C@H]3CCN12", "IC50": "> 50"},
      {"smiles": "Cc1cccc2c1C(=O)[C@@H]1[C@H]3CCC[N@@+]3([O-])CC[C@H]1O2", "note": "(racemic)", "IC50": "> 50"},
      {"smiles": "Cc1cccc2c1C(=O)[C@@H]1[C@H]3CCC(=O)N3CC[C@H]1O2", "IC50": "> 50"},
      {"smiles": "Cc1cccc2c1C(=O)[C@@H]1[C@H](CCN3C(=O)CC[C@@H]13)O2", "IC50": "> 50"},
      {"smiles": "Cc1cccc2c1C(=O)[C@H]1[C@H](CCN3C(=O)CC[C@H]13)O2", "note": "(racemic)", "IC50": "> 50"},
      {"smiles": "Cc1cccc2c1C(=O)[C@H]1[C@H](CCN3CCC[C@H]13)O2", "note": "(racemic) [ISOELAEOCARPINE]", "IC50": "> 50"},
      {"smiles": "Cc1cccc2c1C(=O)[C@@H]1[C@H]3CCCN3CC[C@H]1O2", "note": "(racemic)", "IC50": 35},
      {"smiles": "Cc1cccc2c1C(=O)CC(CCCNCCCO)O2", "note": "(racemic)", "IC50": "> 50"},
      {"smiles": "Cc1cccc2c1C(=O)[C@H]1[C@@H](CC[N@@+]3([O-])CCC[C@@H]13)O2", "note": "(racemic)", "IC50": 29},
      {"smiles": "Cc1cccc(O)c1C(=O)C[C@@H]1CC[C@@H]2[C@H]3C(=O)c4c(C)cccc4O[C@@H]3CCN12", "note": "(racemic)", "IC50": "> 50"},
      {"smiles": "Cc1cccc(O)c1C(=O)C[C@H]1CC[C@H]2[C@@H]3C(=O)c4c(C)cccc4O[C@@H]3CCN12", "IC50": "> 50"},
      {"smiles": "Cc1cccc(O)c1C(=O)CC1CCCN1CCCO", "note": "(racemic)", "IC50": "> 50"},
      {"smiles": "Cc1cccc2c1C(=O)C1=C3CCCN3CCC1O2", "note": "(racemic)", "IC50": 39},
      {"smiles": "Cc1cccc2c1C(=O)[C@@H]1[C@H]3CCC[N@+]3([O-])CC[C@H]1O2", "note": "(racemic)", "IC50": "> 50"}
    ]}
  ]
}
